Source: patent publication US6620831B2, “Indazoles substituted with 1,1-dioxoisothiazolidine useful as inhibitors of cell proliferation” (LG Life Sciences Ltd., priority 2000, dated 2003)
pIC50: −log10 of the molar value.

Biological target: T1, CDK2/cyclin A (Homo sapiens, UniProt P24941)
T1 construct: made in house; host or cells: insect ('worm') cells co-infected with baculoviruses
Assay: CDK2 inhibitory activity (CDK2/cyclin A, [gamma-32P] ATP, histon H1 or Rb protein substrate)
Assay type: biochemical
Conditions: first IC50 column (c1) of Table 1
Text: CDK2 enzyme was obtained from either extract from the worm cell co-infected with baculovirus which expresses a CDK2 gene and baculovirus which expresses a cyclin A gene, or active enzyme purified therefrom. CDK4 was also obtained from either extract from the worm cell co-infected with baculovirus which expresses a CDK4 gene and baculovirus which expresses a cyclin D1 gene. As substrates, histon H1 or Rb protein was used for CDK2, and Rb protein for CDK4. The radioactive activities in substrates were determined by reacting compounds diluted with each concentration with a proper quantity of CDK2/cyclin A or CDK4/cyclin D1 and substrate protein, and [gamma-32P labeled] ATP, and then separating the substrates.
Inhibitory abilities of inhibitors according to the present invention for each enzyme activity were expressed as IC50 values, which were determined in accordance with the method as described above.

| Compound | pIC50 |
| --- | --- |
| O=C(Cc1ccc(Cn2ccnc2)cc1)Nc1n[nH]c2ccc(N3CCCS3(=O)=O)cc12 [Compound 46, N-[5-(1,1-dioxo-1λ^6-isothiazolidin-2-yl)-1H-indazol-3-yl]-2-[4-(1H-imidazole-1-ylmethyl)phenyl]acetamide] | > 6.00 |
| CC(=O)Nc1nc(CC(=O)Nc2n[nH]c3ccc(N4CCCS4(=O)=O)cc23)cs1 [Compound 76] | > 5.00 |
| O=C(Cn1cnc(-c2ccc(Br)cc2)c1)Nc1n[nH]c2ccc(N3CCCS3(=O)=O)cc12 [Compound 61, 2-[4-(4-bromophenyl)-1H-imidazol-1-yl]-N-[5-(1,1-dioxo-1λ^6-isothiazolidin-2-yl)-1H-indazol-3-yl]acetamide] | > 7.00 |
| O=S1(=O)CCCN1c1ccc2[nH]nc(NC(Cc3ccccc3)=NO)c2c1 [Compound 14, N-[5-(1,1-dioxo-1λ^6-isothiazolidin-2-yl)-1H-indazol-3-yl]-N′-hydroxy-2-phenylethaneimidoamide] | > 5.00 |
| Cc1ccc(CC(=O)Nc2n[nH]c3ccc(N4CCCS4(=O)=O)cc23)cc1 [Compound 28, N-[5-(1,1-dioxo-1λ^6-isothiazolidin-2-yl)-1H-indazol-3-yl]-2-(4-methylphenyl)acetamide] | > 7.30 |
| CC(=O)Nc1n[nH]c2ccc(N3CCCS3(=O)=O)cc12 [Compound 19, N-[5-(1,1-dioxo-1λ^6-isothiazolidin-2-yl)-1H-indazol-3-yl]acetamide] | < 4.00 |
| O=C(Cc1cccc(Br)c1)Nc1n[nH]c2ccc(N3CCCS3(=O)=O)cc12 [Compound 11, 2-(3-bromophenyl)-N-[5-(1,1-dioxo-1λ^6-isothiazolidin-2-yl)-1H-indazol-3-yl]acetamide] | > 7.30 |
| CN1CCN(S(=O)(=O)c2ccc(CC(=O)Nc3n[nH]c4ccc(N5CCCS5(=O)=O)cc34)cc2)CC1 [Compound 40, N-[5-(1,1-dioxo-1λ^6-isothiazolidin-2-yl)-1H-indazol-3-yl]-2-4-[(4-methyl-1-piperazinyl)sulfonyl]phenylacetamide] | > 6.00 |
| O=C(Cc1ccc(Cl)cc1)Nc1n[nH]c2ccc(N3CCCS3(=O)=O)cc12 [Compound 8, 2-(4-chlorophenyl)-N-[5-(1,1-dioxo-1λ^6-isothiazolidin-2-yl)-1H-indazol-3-yl]acetamide] | > 7.30 |
| O=C(CCc1ccccc1)Nc1n[nH]c2ccc(N3CCCS3(=O)=O)cc12 [Compound 25, N-[5-(1,1-dioxo-1λ^6-isothiazolidin-2-yl)-1H-indazol-3-yl]-3-phenylpropanamide] | > 6.00 |
| CCNc1nc(CC(=O)Nc2n[nH]c3ccc(N4CCCS4(=O)=O)cc23)cs1 [Compound 64, N-[5-(1,1-dioxo-1λ^6-isothiazolidin-2-yl)-1H-indazol-3-yl]-2-[2-(ethylamino)-1,3-thiazol-4-yl]acetamide] | > 6.30 |
| O=C(Cn1cnc(-c2ccc(-c3ccccc3)cc2)c1)Nc1n[nH]c2ccc(N3CCCS3(=O)=O)cc12 [Compound 63, 2-(4-[1,1′-biphenyl]-4-yl-1H-imidazol-1-yl)-N-[5-(1,1-dioxo-1λ^6-isothiazolidin-2-yl)-1H-indazol-3-yl]acetamide] | > 6.30 |
| O=C(Cc1ccc2ccccc2c1)Nc1n[nH]c2ccc(N3CCCS3(=O)=O)cc12 [Compound 17, N-[5-(1,1-dioxo-1λ^6-isothiazolidin-2-yl)-1H-indazol-3-yl]-2-(2-naphthyl)acetamide] | > 7.30 |
| O=C(Cc1ccc([N+](=O)[O-])cc1)Nc1n[nH]c2ccc(N3CCCS3(=O)=O)cc12 [Compound 45, N-[5-(1,1-dioxo-1λ^6-isothiazolidin-2-yl)-1H-indazol-3-yl]-2-(4-nitrophenyl)acetamide] | > 7.30 |
| O=C(Cc1ccc(N(Cc2ccccc2)Cc2ccccc2)cc1)Nc1n[nH]c2ccc(N3CCCS3(=O)=O)cc12 [Compound 5, 2-[4-(dibenzylamino)phenyl]-N-[5-(1,1-dioxo-1λ^6-isothiazolidin-2-yl)-1H-indazol-3-yl]acetamide] | > 6.30 |
| CCNc1ccc(CC(=O)Nc2n[nH]c3ccc(N4CCCS4(=O)=O)cc23)cc1 [Compound 72, N-[5-(1,1-dioxo-1λ^6-isothiazolidin-2-yl)-1H-indazol-3-yl]-2-[4-(ethylamino)phenyl]acetamide] | > 7.30 |
| Nc1cccc(CC(=O)Nc2n[nH]c3ccc(N4CCCS4(=O)=O)cc23)c1 [Compound 21, 2-(3-aminophenyl)-N-[5-(1,1-dioxo-1λ^6-isothiazolidin-2-yl)-1H-indazol-3-yl]acetamide] | > 7.30 |
| O=C(Cc1ccc(S(=O)(=O)N2CCOCC2)cc1)Nc1n[nH]c2ccc(N3CCCS3(=O)=O)cc12 [Compound 37, N-[5-(1,1-dioxo-1λ^6-isothiazolidin-2-yl)-1H-indazol-3-yl]-2-[4-(4-morpholinylsulfonyl)phenyl]acetamide] | > 7.00 |

| Compound | pIC50 |
| --- | --- |
| CSc1ccc(CC(=O)Nc2n[nH]c3ccc(N4CCCS4(=O)=O)cc23)cc1 [Compound 20, N-[5-(1,1-dioxo-1λ^6-isothiazolidin-2-yl)-1H-indazol-3-yl]-2-[4-(methylsulfanil)phenyl]acetamide] | > 7.30 |
| CCOc1ccccc1N1CCN(CC(=O)Nc2n[nH]c3ccc(N4CCCS4(=O)=O)cc23)CC1 [Compound 52, N-[5-(1,1-dioxo-1λ^6-isothiazolidin-2-yl)-1H-indazol-3-yl]-2-[4-(2-ethoxyphenyl)-1-piperazinyl]acetamide] | > 5.00 |
| O=C(Cc1ccc(Br)cc1)Nc1n[nH]c2ccc(N3CCCS3(=O)=O)cc12 [Compound 12, 2-(4-bromophenyl)-N-[5-(1,1-dioxo-1λ^6-isothiazolidin-2-yl)-1H-indazol-3-yl]acetamide] | > 7.30 |
| CC(C)(C)OC(=O)Nc1nc(CC(=O)Nc2n[nH]c3ccc(N4CCCS4(=O)=O)cc23)cs1 [Compound 58, t-butyl 4-(2-[5-(1,1-dioxo-1λ^6-isothiazolidin-2-yl)-1H-indazol-3-yl]amino-2-oxoethyl)-1,3-thiazol-2-ylcarbamate] | > 7.00 |
| O=C(Cc1cccc(Cl)c1)Nc1n[nH]c2ccc(N3CCCS3(=O)=O)cc12 [Compound 2, 2-(3-chlorophenyl)-N-[5-(1,1-dioxo-1λ^6-isothiazolidin-2-yl)-1H-indazol-3-yl]acetamide] | > 7.30 |
| O=C(CN1CCc2ccccc2C1)Nc1n[nH]c2ccc(N3CCCS3(=O)=O)cc12 [Compound 49, 2-[3,4-dihydro-2(1H)-isoquinolinyl]-N-[5-(1,1-dioxo-1λ^6-isothiazolidin-2-yl)-1H-indazol-3-yl]acetamide] | > 6.00 |
| O=C(Cc1ccc(Oc2ccccc2)cc1)Nc1n[nH]c2ccc(N3CCCS3(=O)=O)cc12 [Compound 54, N-[5-(1,1-dioxo-1λ^6-isothiazolidin-2-yl)-1H-indazol-3-yl]-2-(4-phenoxyphenyl)acetamide] | > 7.00 |
| O=C(Nc1n[nH]c2ccc(N3CCCS3(=O)=O)cc12)C1(c2ccccc2)CCCC1 [Compound 55, N-[5-(1,1-dioxo-1λ^6-isothiazolidin-2-yl)-1H-indazol-3-yl]-1-phenylcyclopentanecarboxamide] | > 4.00 |
| Nc1nc(CC(=O)Nc2n[nH]c3ccc(N4CCCS4(=O)=O)cc23)cs1 [Compound 60, 2-(2-amino-1,3-thiazol-4-yl)-N-[5-(1,1-dioxo-1λ^6-isothiazolidin-2-yl)-1H-indazol-3-yl]acetamide] | > 6.30 |
| CCOCCOCCOc1ccc(CC(=O)Nc2n[nH]c3ccc(N4CCCS4(=O)=O)cc23)cc1 [Compound 59, N-[5-(1,1-dioxo-1λ^6-isothiazolidin-2-yl)-1H-indazol-3-yl]-2-4-[2-(2-ethoxyethoxy)ethoxy]phenylacetamide] | > 7.00 |
| CCOc1ccc(CC(=O)Nc2n[nH]c3ccc(N4CCCS4(=O)=O)cc23)cc1 [Compound 42, N-[5-(1,1-dioxo-1λ^6-isothiazolidin-2-yl)-1H-indazol-3-yl]-2-(4-ethoxyphenyl)acetamide] | > 7.30 |
| CS(=O)(=O)c1ccc(CC(=O)Nc2n[nH]c3ccc(N4CCCS4(=O)=O)cc23)cc1 [Compound 29, N-[5-(1,1-dioxo-1λ^6-isothiazolidin-2-yl)-1H-indazol-3-yl]-2-[4-(methylsulfonyl)phenyl]acetamide] | > 7.30 |
| CCOc1ccc(CC(=O)Nc2n[nH]c3ccc(N4CCCS4(=O)=O)cc23)cc1S(N)(=O)=O [Compound 80, 2-[3-(aminosulfonyl)-4-ethoxyphenyl]-N-[5-(1,1-dioxo-1λ^6-isothiazolidin-2-yl)-1H-indazol-3-yl]acetamide] | > 6.00 |
| CC(C)c1ccc(CC(=O)Nc2n[nH]c3ccc(N4CCCS4(=O)=O)cc23)cc1 [Compound 26, N-[5-(1,1-dioxo-1λ^6-isothiazolidin-2-yl)-1H-indazol-3-yl]-2-(4-isopropylphenyl)acetamide] | > 7.30 |
| NCCOc1ccc(CC(=O)Nc2n[nH]c3ccc(N4CCCS4(=O)=O)cc23)cc1 [Compound 82, 2-[4-(2-aminoethoxy)phenyl]-N-[5-(1,1-dioxo-1λ^6-isothiazolidin-2-yl)-1H-indazol-3-yl]acetamide] | > 6.00 |
| CCOc1cccc(CC(=O)Nc2n[nH]c3ccc(N4CCCS4(=O)=O)cc23)c1 [Compound 78, N-[5-(1,1-dioxo-1λ^6-isothiazolidin-2-yl)-1H-indazol-3-yl]-2-(3-ethoxyphenyl)acetamide] | > 7.30 |
| O=C(CN1CCOCC1)Nc1n[nH]c2ccc(N3CCCS3(=O)=O)cc12 [Compound 31, N-[5-(1,1-dioxo-1λ^6-isothiazolidin-2-yl)-1H-indazol-3-yl]-2-(4-morpholinyl)acetamide] | > 5.00 |
| NCCOc1ccc(CC(=O)Nc2n[nH]c3ccc(N4CCCS4(=O)=O)cc23)cc1 [Compound 75, 2-[4-(2-aminoethoxy)phenyl]-N-[5-(1,1-dioxo-1λ^6-isothiazolidin-2-yl)-1H-indazol-3-yl]acetamide] | > 7.00 |
